This data set relates to CCRIS mutagenicity, Ames/micronucleus/aberration tests. Put plainly: CCRIS mutagenicity studies. The note with it: Test System: AMES SALMONELLA TYPHIMURIUM, Method: STANDARD PLATE.

Active and inactive are the calls of the source. The rule behind the calls is not given here.

For `Clc1cc2ccccc2c2ccccc12`, the mutagenic call is, setting by setting: (Strain/Indicator: TA98, Metabolic Activation: NONE) “inactive; negative”; (Strain/Indicator: TA98, Metabolic Activation: RAT, LIVER, S-9, AROCLOR 1254) “active; positive”; (Strain/Indicator: TA100, Metabolic Activation: NONE) “inactive; negative”; (Strain/Indicator: TA100, Metabolic Activation: RAT, LIVER, S-9, AROCLOR 1254) “inactive; negative”.

For the origin of these results see PubChem BioAssay AID1259407 (Chemical Carcinogenesis Research Information System (CCRIS), 2018).
